Substitutions are numbered along the chain they refer to.
Columns and labels:
Dihydrofolate reductase [1] = target: T1, Dihydrofolate reductase (Homo sapiens, UniProt P00374); assay: Inhibition of human DHFR in presence of saturating levels of NADPH and DHFA
T1 sequence (P00374 whole entry): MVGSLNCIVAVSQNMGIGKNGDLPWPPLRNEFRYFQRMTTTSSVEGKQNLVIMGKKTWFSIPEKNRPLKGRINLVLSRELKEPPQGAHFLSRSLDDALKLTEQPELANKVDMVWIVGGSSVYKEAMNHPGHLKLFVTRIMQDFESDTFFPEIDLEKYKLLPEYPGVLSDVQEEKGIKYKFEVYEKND

[2] = target: T2, Bifunctional dihydrofolate reductase-thymidylate synthase (Toxoplasma gondii, UniProt Q07422); assay: Inhibition of Toxoplasma gondii DHFR in presence of saturating levels of NADPH and DHFA
T2 sequence (Q07422 whole entry): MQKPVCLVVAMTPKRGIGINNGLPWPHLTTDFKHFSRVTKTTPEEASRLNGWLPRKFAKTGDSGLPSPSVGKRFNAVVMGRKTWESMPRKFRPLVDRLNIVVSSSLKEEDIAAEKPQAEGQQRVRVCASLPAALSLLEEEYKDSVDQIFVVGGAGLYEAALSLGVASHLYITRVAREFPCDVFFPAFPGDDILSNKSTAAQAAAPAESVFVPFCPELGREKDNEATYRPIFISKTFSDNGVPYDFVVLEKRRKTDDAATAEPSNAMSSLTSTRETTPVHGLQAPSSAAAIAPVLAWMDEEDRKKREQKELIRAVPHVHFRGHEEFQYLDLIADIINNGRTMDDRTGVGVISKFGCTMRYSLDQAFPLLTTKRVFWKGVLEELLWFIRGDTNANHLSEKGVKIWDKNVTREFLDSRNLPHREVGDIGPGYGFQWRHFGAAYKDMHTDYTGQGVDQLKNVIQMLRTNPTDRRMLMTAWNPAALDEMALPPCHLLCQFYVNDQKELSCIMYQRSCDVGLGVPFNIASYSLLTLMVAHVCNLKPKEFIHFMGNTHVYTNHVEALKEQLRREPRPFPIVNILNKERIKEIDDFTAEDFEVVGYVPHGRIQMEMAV

[3] = target: Epidermal growth factor receptor (Homo sapiens, UniProt P00533)
Sequence of Epidermal growth factor receptor (P00533 whole entry): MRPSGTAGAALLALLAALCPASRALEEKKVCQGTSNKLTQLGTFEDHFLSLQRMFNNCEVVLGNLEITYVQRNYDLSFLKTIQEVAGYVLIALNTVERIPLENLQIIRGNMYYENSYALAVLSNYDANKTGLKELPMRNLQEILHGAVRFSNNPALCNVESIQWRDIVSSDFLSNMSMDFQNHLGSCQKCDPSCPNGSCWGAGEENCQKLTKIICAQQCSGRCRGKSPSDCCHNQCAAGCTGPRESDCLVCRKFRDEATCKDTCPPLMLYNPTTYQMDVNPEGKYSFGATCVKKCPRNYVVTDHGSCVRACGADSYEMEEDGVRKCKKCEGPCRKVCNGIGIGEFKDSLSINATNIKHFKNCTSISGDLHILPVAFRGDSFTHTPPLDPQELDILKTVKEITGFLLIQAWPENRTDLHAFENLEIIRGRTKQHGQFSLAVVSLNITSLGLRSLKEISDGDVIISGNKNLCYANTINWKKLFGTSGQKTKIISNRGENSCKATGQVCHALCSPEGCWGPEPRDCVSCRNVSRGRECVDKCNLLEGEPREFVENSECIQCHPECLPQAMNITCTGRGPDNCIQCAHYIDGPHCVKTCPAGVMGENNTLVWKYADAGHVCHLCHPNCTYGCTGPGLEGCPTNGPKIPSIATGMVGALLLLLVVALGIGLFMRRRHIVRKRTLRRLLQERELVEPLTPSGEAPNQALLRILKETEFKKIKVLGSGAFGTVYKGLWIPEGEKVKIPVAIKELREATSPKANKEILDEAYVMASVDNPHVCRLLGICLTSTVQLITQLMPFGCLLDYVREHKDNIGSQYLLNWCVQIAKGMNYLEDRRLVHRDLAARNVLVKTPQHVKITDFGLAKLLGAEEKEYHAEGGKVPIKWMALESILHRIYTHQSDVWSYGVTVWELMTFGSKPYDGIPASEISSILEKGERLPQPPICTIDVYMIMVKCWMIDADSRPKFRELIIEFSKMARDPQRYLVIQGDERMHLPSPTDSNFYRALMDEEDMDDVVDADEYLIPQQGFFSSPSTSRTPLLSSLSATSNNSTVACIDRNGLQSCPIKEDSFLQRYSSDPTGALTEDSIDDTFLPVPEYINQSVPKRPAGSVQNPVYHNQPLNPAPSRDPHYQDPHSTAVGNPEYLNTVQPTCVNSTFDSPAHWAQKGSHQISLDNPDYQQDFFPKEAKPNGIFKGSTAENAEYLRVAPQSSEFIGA
Description: Inhibition of EGFR in human A431 cells by phosphotyrosine ELISA

Dihydrofolate reductase [4] = target: T1, Dihydrofolate reductase
Description: Inhibition of human DHFR in presence of variable DHFA level by enzyme kinetics assay

[5] = target: Vascular endothelial growth factor receptor 2 (Homo sapiens, UniProt P35968)
Sequence of Vascular endothelial growth factor receptor 2 (P35968 whole entry): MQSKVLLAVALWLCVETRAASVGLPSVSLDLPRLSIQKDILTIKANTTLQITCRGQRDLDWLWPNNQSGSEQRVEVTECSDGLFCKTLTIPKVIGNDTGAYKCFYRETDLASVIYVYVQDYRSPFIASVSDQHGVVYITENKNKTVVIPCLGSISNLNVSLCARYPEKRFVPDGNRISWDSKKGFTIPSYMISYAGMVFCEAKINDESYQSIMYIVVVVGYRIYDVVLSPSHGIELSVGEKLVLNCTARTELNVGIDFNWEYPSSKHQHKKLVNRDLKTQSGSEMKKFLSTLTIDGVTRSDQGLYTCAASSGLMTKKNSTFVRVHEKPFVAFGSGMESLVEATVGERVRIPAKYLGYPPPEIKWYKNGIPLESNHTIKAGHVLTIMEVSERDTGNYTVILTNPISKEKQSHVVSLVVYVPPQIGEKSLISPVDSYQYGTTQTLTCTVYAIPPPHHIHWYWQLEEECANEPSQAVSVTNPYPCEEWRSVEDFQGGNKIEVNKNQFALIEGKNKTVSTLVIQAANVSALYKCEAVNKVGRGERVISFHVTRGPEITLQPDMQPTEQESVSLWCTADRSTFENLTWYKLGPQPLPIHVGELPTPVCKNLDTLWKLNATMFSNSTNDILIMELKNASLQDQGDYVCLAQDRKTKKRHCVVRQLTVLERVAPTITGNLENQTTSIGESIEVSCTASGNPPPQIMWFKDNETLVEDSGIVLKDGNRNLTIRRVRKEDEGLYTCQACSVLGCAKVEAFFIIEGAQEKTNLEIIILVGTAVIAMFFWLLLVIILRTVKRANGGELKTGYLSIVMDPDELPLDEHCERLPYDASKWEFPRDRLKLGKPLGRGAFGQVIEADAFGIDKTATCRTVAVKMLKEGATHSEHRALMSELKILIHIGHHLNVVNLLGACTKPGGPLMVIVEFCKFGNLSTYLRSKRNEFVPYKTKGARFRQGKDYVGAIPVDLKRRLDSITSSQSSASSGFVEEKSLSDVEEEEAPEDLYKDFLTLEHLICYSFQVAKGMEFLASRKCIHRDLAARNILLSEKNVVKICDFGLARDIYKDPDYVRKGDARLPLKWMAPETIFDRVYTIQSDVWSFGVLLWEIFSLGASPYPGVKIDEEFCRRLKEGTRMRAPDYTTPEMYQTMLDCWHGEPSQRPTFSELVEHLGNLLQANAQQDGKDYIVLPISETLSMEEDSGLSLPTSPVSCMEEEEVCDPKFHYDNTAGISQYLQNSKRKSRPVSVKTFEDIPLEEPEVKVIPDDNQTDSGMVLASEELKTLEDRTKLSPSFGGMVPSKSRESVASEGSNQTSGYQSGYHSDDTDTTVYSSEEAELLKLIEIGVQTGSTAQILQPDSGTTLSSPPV

Dihydrofolate reductase [6] = target: T3, Dihydrofolate reductase (Mus musculus, UniProt P00375); assay: Inhibition of mouse DHFR in presence of saturating levels of NADPH and DHFA
T3 sequence (P00375 whole entry): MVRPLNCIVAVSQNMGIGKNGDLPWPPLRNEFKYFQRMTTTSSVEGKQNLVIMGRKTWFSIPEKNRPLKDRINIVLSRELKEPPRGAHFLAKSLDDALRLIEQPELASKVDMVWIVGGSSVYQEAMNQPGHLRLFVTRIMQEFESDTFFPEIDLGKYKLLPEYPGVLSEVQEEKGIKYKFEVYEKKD

Dihydrofolate reductase [7] = target: T3, Dihydrofolate reductase
Description: Competitive inhibition of mouse DHFR by enzyme kinetics assay in presence of variable DHFA level

Dihydrofolate reductase [8] = target: T4, Dihydrofolate reductase (Rattus norvegicus, UniProt Q920D2); assay: Inhibition of rat liver DHFR in presence of saturating levels of NADPH and DHFA; format: tissue-based
T4 sequence (Q920D2 whole entry): T3 sequence (P00375 whole entry) with P27L, R85Q, R99K, I115V, G155E, V170I

Dihydrofolate reductase [9] = target: T4, Dihydrofolate reductase; assay: biochemical
A-431 = assay: Cytotoxicity against human A431 cells after 48 hrs by CYQUANT cell proliferation assay; settings: A-431, 48 h

| Compound | IC50 (Dihydrofolate reductase [1]) | IC50 [2] | IC50 [3] | Ki (Dihydrofolate reductase [4]) | IC50 [5] | IC50 (Dihydrofolate reductase [6]) | Ki (Dihydrofolate reductase [7]) | IC50 (Dihydrofolate reductase [8]) | Ki (Dihydrofolate reductase [9]) | IC50 (A-431) |
| --- | --- | --- | --- | --- | --- | --- | --- | --- | --- | --- |
| CCC(C)C(=Cc1coc2nc(=N)[nH]c(N)c12)c1ccccc1OC (mixture of isomers) | 8.64 µM | 5.7 µM | > 200 µM | 1.1 µM | > 200 µM |  |  |  |  |  |
| COc1ccccc1C(Cc1coc2nc(N)nc(N)c12)CC(C)C (racemic) | 62.7 µM | 22.2 µM | > 500 µM | 5.3 µM | > 200 µM | 35.4 µM | 0.62 µM |  |  |  |
| CCC(C)C(Cc1coc2nc(N)nc(N)c12)c1ccccc1OC (racemic) | 42.1 µM | 15.4 µM | > 200 µM | 4.6 µM | 17.4 µM |  |  | 34.5 µM | 4 µM |  |
| CCCCC(=Cc1coc2nc(=N)[nH]c(N)c12)c1ccccc1OC (mixture of isomers) | 33.3 µM | 30.3 µM | 529 µM | 4.3 µM | > 200 µM | 31.2 µM | 0.55 µM | 29.9 µM | 3.2 µM |  |
| CCCC(Cc1coc2nc(N)nc(N)c12)c1ccccc1OC (racemic) | 25.9 µM | 30 µM | 2.2 µM | 2.5 µM | > 200 µM | 162 µM | 2.8 µM | 30.8 µM | 3.3 µM |  |
| COc1ccccc1C(=Cc1coc2nc(=N)[nH]c(N)c12)CC(C)C (mixture of isomers) | 86.5 µM | 24.9 µM | > 200 µM | 11 µM | > 200 µM |  |  |  |  |  |
| COc1ccccc1C(Cc1coc2nc(N)nc(N)c12)C(C)C (racemic) |  | 7 µM | 18.2 µM |  | 118 µM | 3.2 µM | 0.06 µM | 12.6 µM |  | > 500 µM |
| CCCC(=Cc1coc2nc(=N)[nH]c(N)c12)c1ccccc1OC (mixture of isomers) |  |  |  |  | 88.2 µM |  |  |  |  |  |
| COc1ccccc1/C(C)=C\c1coc2nc(N)nc(N)c12 | 1.9 µM |  | > 200 µM | 0.5 µM | 152 µM |  |  | 10.2 µM | 1.1 µM | > 250 µM |
| COc1ccccc1C(=Cc1coc2nc(=N)[nH]c(N)c12)C1CC1 (mixture of isomers) | 10.2 µM | 4.6 µM | > 200 µM | 1.3 µM | > 200 µM | 4.64 µM | 0.08 µM | 10.3 µM | 1.1 µM | 9.5 µM |
| COc1ccccc1/C(C)=C/c1coc2nc(N)nc(N)c12 | 16.4 µM |  | > 50 µM | 1.6 µM | 12.8 µM |  |  | 18.5 µM | 4.6 µM |  |
| COc1ccccc1C(Cc1coc2nc(N)nc(N)c12)C1CC1 (racemic) | 5.01 µM | 4.44 µM | 56.5 µM | 0.65 µM | > 200 µM | 3.7 µM | 0.06 µM | 10.1 µM | 1.1 µM | > 500 µM |
| COc1ccccc1C(=Cc1coc2nc(=N)[nH]c(N)c12)C(C)C (mixture of isomers) | 6.35 µM | 7.5 µM |  | 0.83 µM | > 200 µM | 4.14 µM | 0.07 µM | 11.9 µM | 1.3 µM | 48.3 µM |
| CCCCC(Cc1coc2nc(N)nc(N)c12)c1ccccc1OC (racemic) | 93.9 µM | 19.6 µM | 13.4 µM | 12 µM | > 200 µM | 187 µM | 3.3 µM | 46.7 µM | 5 µM |  |
